Reference: ChEMBL document CHEMBL4342418, “1,2,3-Triazole-containing hybrids as potential anticancer agents: Current developments, action mechanisms and structure-activity relationships” (Eur J Med Chem, 2019)
pIC50: −log10 of the molar value.

Columns and labels:
MCF7 [1] = experiment: cells; format: functional, cell-based; conditions: Homo sapiens
Description: Antiproliferative activity against human MCF7 cells by MTT assay

MV4-11 = experiment: Antiproliferative activity against human MV4-11 cells by MTT assay; format: functional, cell-based
MCF-10A = experiment: Cytotoxicity against human MCF10A cells by MTT assay; format: cell-based
HT-29 [2] = experiment: Antiproliferative activity against human HT-29 cells by MTT assay; format: functional, cell-based
DU-145 [3] = experiment: Antiproliferative activity against human DU145 cells by MTT assay; format: functional, cell-based
A549 [4] = experiment: cells; format: functional, cell-based; conditions: Homo sapiens
Description: Antiproliferative activity against human A549 cells by MTT assay

[5] = Cytotoxicity against dog MDCK1 cells assessed as reduction in cell viability after 72 hrs by MTT assay; format: cell-based; conditions: Canis lupus familiaris, MDCK1, 72 h
HeLa [6] = experiment: Antiproliferative activity against human HeLa cells assessed as reduction in cell viability after 72 hrs by MTT assay; format: functional, cell-based
Caco-2 = experiment: Antiproliferative activity against human Caco2 cells assessed as reduction in cell viability after 72 hrs by MTT assay; format: functional, cell-based; conditions: Caco-2, 72 h
K562 = experiment: Antiproliferative activity against human K562 cells assessed as reduction in cell viability after 72 hrs by MTT assay; format: functional, cell-based; conditions: K562, 72 h
[7] = Antiproliferative activity against human SMCC7721 cells assessed as reduction in cell viability after 48 hrs by MTT assay; format: functional, cell-based
SW480 = experiment: Antiproliferative activity against human SW480 cells assessed as reduction in cell viability after 48 hrs by MTT assay; format: functional, cell-based; conditions: SW480, 48 h
A549 [8] = experiment: Antiproliferative activity against human A549 cells assessed as reduction in cell viability after 48 hrs by MTT assay; format: functional, cell-based; conditions: A549, 48 h
HL-60 = experiment: Antiproliferative activity against human HL60 cells assessed as reduction in cell viability after 48 hrs by MTT assay; format: functional, cell-based; conditions: HL-60, 48 h
HBL-100 = experiment: Antiproliferative activity against human HBL100 cells assessed as reduction in cell viability after 48 hrs by MTT assay; format: functional, cell-based; conditions: HBL-100, 48 h
HT-29 [9] = experiment: Antiproliferative activity against human HT-29 cells assessed as reduction in cell viability after 48 hrs by MTT assay; format: functional, cell-based; conditions: HT-29, 48 h
HCT-116 = experiment: Antiproliferative activity against human HCT116 cells assessed as reduction in cell viability after 48 hrs by MTT assay; format: functional, cell-based; conditions: HCT-116, 48 h
HEK293 = experiment: Cytotoxicity against HEK293 cells assessed as reduction in cell viability after 48 hrs by MTT assay; format: cell-based; conditions: Homo sapiens, HEK293, 48 h
MDA-MB-231 [10] = experiment: Antiproliferative activity against human MDA-MB-231 cells assessed as reduction in cell viability after 48 hrs by MTT assay; format: functional, cell-based; conditions: MDA-MB-231, 48 h
DU-145 [11] = experiment: Antiproliferative activity against human DU145 cells assessed as reduction in cell viability after 48 hrs by MTT assay; format: functional, cell-based; conditions: DU-145, 48 h
HepG2 [12] = experiment: Antiproliferative activity against human HepG2 cells assessed as reduction in cell viability after 72 hrs by MTT assay; format: functional, cell-based; conditions: HepG2, 72 h
A549 [13] = experiment: Antiproliferative activity against human A549 cells assessed as reduction in cell viability after 72 hrs by MTT assay; format: functional, cell-based; conditions: A549, 72 h
MCF7 [14] = experiment: Antiproliferative activity against human MCF7 cells assessed as reduction in cell viability after 72 hrs by MTT assay; format: functional, cell-based; conditions: MCF7, 72 h
HeLa [15] = experiment: Antiproliferative activity against human HeLa cells by SRB assay; format: functional, cell-based
DU-145 [16] = experiment: Antiproliferative activity against human DU145 cells by SRB assay; format: functional, cell-based
HepG2 [17] = experiment: Antiproliferative activity against human HepG2 cells by SRB assay; format: functional, cell-based
MDA-MB-231 [18] = experiment: Antiproliferative activity against human MDA-MB-231 cells by SRB assay; format: functional

## C=CCC1CN2CCC1CC2[C@@H](c1ccnc2ccc(OC)cc12)n1cc(-c2ccc3ccccc3n2)nn1 (some centres undefined)
MCF7 [1]
  pIC50: 4.84 to 6.28
MV4-11
  pIC50: 4.84 to 6.28
MCF-10A
  pIC50: 4.84 to 6.28
HT-29 [2]
  pIC50: 4.84 to 6.28
DU-145 [3]
  pIC50: 4.84 to 6.28
A549 [4]
  pIC50: 4.84 to 6.28

## COc1ccc(-c2cn(Cc3cc(=O)oc4cc(O)c(O)cc34)nn2)cc1
[5]
  pIC50: 4.34 to 4.44
HeLa [6]
  pIC50: 4.09 to 5.01
Caco-2
  pIC50: 4.09 to 5.01
K562
  pIC50: 4.09 to 5.01

## COc1cccc(-c2cn(Cc3cc(=O)oc4cc(O)c(O)cc34)nn2)c1
[5]
  pIC50: 4.34 to 4.44
HeLa [6]
  pIC50: 4.09 to 5.01
Caco-2
  pIC50: 4.09 to 5.01
K562
  pIC50: 4.09 to 5.01

## C=CCC1CN2CCC1CC2[C@H](O)c1cc(-c2cn(-c3ccccc3)nn2)nc2ccc(OC)cc12 (some centres undefined)
MCF7 [1]
  pIC50: 5.19 to 6.28
MV4-11
  pIC50: 5.19 to 6.28
MCF-10A
  pIC50: 5.19 to 6.28
HT-29 [2]
  pIC50: 5.19 to 6.28
DU-145 [3]
  pIC50: 5.19 to 6.28
A549 [4]
  pIC50: 5.19 to 6.28

## O=c1cc(Cn2cc(-c3ccccc3)nn2)c2cc(O)c(O)cc2o1
[5]
  pIC50: 4.34 to 4.44
HeLa [6]
  pIC50: 4.09 to 5.01
Caco-2
  pIC50: 4.09 to 5.01
K562
  pIC50: 4.09 to 5.01

## COc1cc([C@@H]2c3cc4c(cc3[C@H](n3cc(COCC(COCc5cn([C@H]6c7cc8c(cc7[C@@H](c7cc(OC)c(O)c(OC)c7)[C@H]7C(=O)OC[C@@H]76)OCO8)nn5)O[C@@H]5O[C@H](COC(C)=O)[C@@H](OC(C)=O)[C@H](OC(C)=O)[C@H]5OC(C)=O)nn3)[C@H]3COC(=O)[C@H]23)OCO4)cc(OC)c1O (some centres undefined)
[7]
  pIC50: 4.52 to 6.37
SW480
  pIC50: 4.52 to 6.37
A549 [8]
  pIC50: 4.52 to 6.37
HL-60
  pIC50: 4.52 to 6.37

## CCCC(=O)OC[C@H]1O[C@@H](OC(COCc2cn([C@H]3c4cc5c(cc4[C@@H](c4cc(OC)c(O)c(OC)c4)[C@H]4C(=O)OC[C@@H]43)OCO5)nn2)COCc2cn([C@H]3c4cc5c(cc4[C@@H](c4cc(OC)c(O)c(OC)c4)[C@H]4C(=O)OC[C@@H]43)OCO5)nn2)[C@H](OC(=O)CCC)[C@@H](OC(=O)CCC)[C@@H]1OC(=O)CCC (some centres undefined)
[7]
  pIC50: 4.52 to 6.37
SW480
  pIC50: 4.52 to 6.37
A549 [8]
  pIC50: 4.52 to 6.37
HL-60
  pIC50: 4.52 to 6.37

## C[C@@H]1CC[C@@]2(OC1)O[C@H]1C[C@H]3[C@@H]4CC=C5C[C@@H](OCc6cn(-c7ccccc7C#N)nn6)CC[C@]5(C)[C@H]4CC[C@]3(C)[C@H]1[C@@H]2C
HBL-100
  pIC50: 5.03 to 5.29
HT-29 [9]
  pIC50: 5.03 to 5.29
A549 [8]
  pIC50: 5.03 to 5.29
HCT-116
  pIC50: 5.03 to 5.29

## O=C(c1cn(Cc2ccc(-c3ccc(Cl)cc3)cc2)nn1)c1c(-c2ccccc2)nc2ccccn12
HEK293
  pIC50: 4.04
A549 [8]
  pIC50: 5.40 to 6.29
HCT-116
  pIC50: 5.40 to 6.29
MDA-MB-231 [10]
  pIC50: 5.40 to 6.29
DU-145 [11]
  pIC50: 5.40 to 6.29

## C=CCC1CN2CCC1CC2[C@H](O)c1ccnc2ccc(-c3cn(-c4ccccc4)nn3)cc12 (some centres undefined)
MCF7 [1]
  pIC50: 4.84 to 6.28
MV4-11
  pIC50: 4.84 to 6.28
MCF-10A
  pIC50: 4.84 to 6.28
HT-29 [2]
  pIC50: 4.84 to 6.28
DU-145 [3]
  pIC50: 4.84 to 6.28
A549 [4]
  pIC50: 4.84 to 6.28

## COc1ccccc1-c1cn(Cc2cc(=O)oc3cc(O)c(O)cc23)nn1
[5]
  pIC50: 4.34 to 4.44
HeLa [6]
  pIC50: 4.09 to 5.01
Caco-2
  pIC50: 4.09 to 5.01
K562
  pIC50: 4.09 to 5.01

## C[C@@H]1CC[C@@]2(OC1)O[C@H]1C[C@H]3[C@@H]4CC=C5C[C@@H](OCc6cn(-c7ccccc7[N+](=O)[O-])nn6)CC[C@]5(C)[C@H]4CC[C@]3(C)[C@H]1[C@@H]2C
HBL-100
  pIC50: 5.03 to 5.29
HT-29 [9]
  pIC50: 5.03 to 5.29
A549 [8]
  pIC50: 5.03 to 5.29
HCT-116
  pIC50: 5.03 to 5.29

## C=CCC1CN2CCC1CC2[C@H](O)c1cc(-c2cn(-c3ccc(O)cc3)nn2)nc2ccc(OC)cc12 (some centres undefined)
MCF7 [1]
  pIC50: 4.84 to 6.28
MV4-11
  pIC50: 4.84 to 6.28
MCF-10A
  pIC50: 4.84 to 6.28
HT-29 [2]
  pIC50: 4.84 to 6.28
DU-145 [3]
  pIC50: 4.84 to 6.28
A549 [4]
  pIC50: 4.84 to 6.28

## COc1cc2c(Oc3ccc(NC(=O)C4(C(=O)Nc5ccc(F)cc5)CC4)cc3F)ccnc2cc1OCCCN1CCOCC1 [FORETINIB]
HepG2 [12]
  pIC50: 5.33 to 5.62
A549 [13]
  pIC50: 5.33 to 5.62
MCF7 [14]
  pIC50: 5.33 to 5.62

## COC(=O)Nc1nc2cc(C(=O)c3cccs3)ccc2[nH]1 [NOCODAZOLE]
HT-29 [9]
  pIC50: 5.51 to 5.66
HEK293
  pIC50: 5.51 to 5.66
HeLa [15]
  GI50: 0.011 to 0.034 µM
DU-145 [16]
  GI50: 0.011 to 0.034 µM
HepG2 [17]
  GI50: 0.011 to 0.034 µM
A549 [8]
  pIC50: 5.51 to 5.86
HCT-116
  pIC50: 5.78 to 5.86
MDA-MB-231 [10]
  pIC50: 5.78 to 5.86
DU-145 [11]
  pIC50: 5.51 to 5.86
MDA-MB-231 [18]
  GI50: 0.011 to 0.034 µM
